{
  "source": "patent US11648220B2",
  "about": "“Methods for the treatment of myeloid derived suppressor cells related disorders” (The Rockefeller University, priority 2016, dated 2023)",
  "key": {"[1]": {"system": "myeloid-derived suppressor cells (MDSCs) in B16F10 melanoma", "test": "tumor-infiltrating MDSCs in B16F10 tumor-bearing mice (flow cytometry, Gr1 immunohistochemistry)", "assay_type": "in vivo", "procedure": "(§1) All mouse studies were conducted according to a protocol approved by the Institutional Animal Care and Use Committee at the Rockefeller University. C57BL/6 mice were obtained from the Jackson Laboratory. For experiments testing the effect of LXR agonists on tumor growth, mice were assigned to a control chow or a chow supplemented with compound 682 (Sigma-Aldrich) or compound 705 (Rgenix, Inc.) at 50, or 100 mg/kg/day, as indicated. For combination drug regimens, mice were fed a compound 705-supplemented diet and co-treated with anti-PD-1 antibody (clone RMP1-14 BioXcell), 10 mg/kg by i.p. injection every 3 days for 3 total doses starting on the day of tumor injection. All drug-formulated diets were prepared by Research Diets.\nAll mouse studies were conducted according to a protocol approved by the Institutional Animal Care and Use Committee at the Rockefeller University. […]\n(§2) At the indicated day, tumors were isolated from euthanized mice and minced into small (˜1 mm^2) pieces with a scalpel and then enzymatically dissociated. […] After staining, cells were subsequently analyzed by flow cytometry using an LSRII flow cytometer (BD Biosciences). Data was analyzed using FlowJo software. […]\nAt the indicated day, blood was drawn from mice and treated with RBC Lysis Buffer (Sigma) followed by filtration through a […] filter (Corning Inc) to obtain a single cell suspension of lymphocytes. […] After staining, cells were subsequently analyzed by flow cytometry using an LSRII flow cytometer (BD Biosciences). Data was analyzed using FlowJo software.\nFor MDSC quantification studies, frozen tumor sections (no fixation) were stained with an antibody against Gr1 (1:1000; BioXcell). […]"}, "[2]": {"target": "T1, LXRβ (Homo sapiens, UniProt P55055)", "T1 sequence (P55055 1-460)": "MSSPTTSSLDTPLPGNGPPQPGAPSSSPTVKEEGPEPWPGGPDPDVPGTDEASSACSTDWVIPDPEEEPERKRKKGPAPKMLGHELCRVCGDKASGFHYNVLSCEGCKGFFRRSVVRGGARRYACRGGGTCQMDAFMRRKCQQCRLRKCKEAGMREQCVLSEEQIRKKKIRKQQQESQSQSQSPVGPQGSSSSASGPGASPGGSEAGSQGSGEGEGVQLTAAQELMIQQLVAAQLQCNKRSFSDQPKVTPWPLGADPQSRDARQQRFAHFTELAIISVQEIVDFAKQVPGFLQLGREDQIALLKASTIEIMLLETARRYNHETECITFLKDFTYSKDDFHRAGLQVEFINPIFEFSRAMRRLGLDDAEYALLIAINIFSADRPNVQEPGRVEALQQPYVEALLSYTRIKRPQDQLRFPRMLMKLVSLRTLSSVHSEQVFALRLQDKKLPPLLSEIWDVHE", "test": "ligand sensing assay (LiSA), LXRβ", "assay_type": "biochemical", "text": "As used herein, reference to the activity of an LXR agonist at LXRα and LXRβ refer to the activity as measured using the ligand sensing assay (LiSA) described in Spencer et al. Journal of Medicinal Chemistry 2001, 44, 886-897, incorporated herein by reference. […] For example, the methods of the invention can be performed using an LXRβ agonist having activity for LXRβ that is at least 3-fold greater than the activity of the agonist for LXRα, or having activity for LXRβ that is at least 10-fold greater than the activity of the agonist for LXRα, or having activity for LXRβ that is at least 100-fold greater than the activity of said agonist for LXRα, or having activity for LXRβ that is at least within 3-fold of the activity of the agonist for LXRα. The term “greater activity” in the LiSA assay refers to a lower EC50."}, "[3]": {"system": "activated CD8+ T-cells in B16F10 melanoma", "test": "tumor-infiltrating activated CD8+ T-cells in B16F10 tumor-bearing mice (flow cytometry)", "assay_type": "in vivo", "conditions": "supplemented diet 100 mg/kg/day, tumors isolated day 12-14", "procedure": "All mouse studies were conducted according to a protocol approved by the Institutional Animal Care and Use Committee at the Rockefeller University. C57BL/6 (WT); and Pmel (B6.Cg-Thy1^a/Cy Tg(TcraTcrb)8Rest/J mice were obtained from the Jackson Laboratory. To determine the effect of LXR agonists on in vivo primary tumor growth, mice were injected with 5×10^4 B16F10 melanoma cells. For all tumor growth experiments, cells (suspension in […] of PBS) were mixed 1:1 with matrigel (356231, BD Biosciences, Bedford, Mass.) and subcutaneously injected into the lower flank of 6-8 week-old sex-matched mice. Following formation of tumors, mice were assigned to the following treatment groups as described below. All drug-formulated diets were prepared by Research Diets. […]\nas §2\nAfter tumor cell injection, animals were palpated every two days for tumor formation. […] Tumor dimensions were measured using digital calipers, and tumor volume was calculated as (small diameter)^2×(large diameter)/2. […]"}, "[4]": {"system": "B16F10 melanoma", "test": "B16F10 tumors, compound 705 plus adoptive transfer of Pmel CD8+ T-cells (survival)", "assay_type": "in vivo, mice", "conditions": "B16F10, diet 50 mg/kg/day plus 2×10^6 Pmel CD8+ T-cells", "procedure": "All mouse studies were conducted according to a protocol approved by the Institutional Animal Care and Use Committee at the Rockefeller University. C57BL/6 (WT); and Pmel (B6.Cg-Thy1^a/Cy Tg(TcraTcrb)8Rest/J mice were obtained from the Jackson Laboratory. To determine the effect of LXR agonists on in vivo primary tumor growth, mice were injected with 5×10^4 B16F10 melanoma cells. For all tumor growth experiments, cells (suspension in […] of PBS) were mixed 1:1 with matrigel (356231, BD Biosciences, Bedford, Mass.) and subcutaneously injected into the lower flank of 6-8 week-old sex-matched mice. Following formation of tumors, mice were assigned to the following treatment groups as described below. All drug-formulated diets were prepared by Research Diets. After the indicated number of days, either peripheral blood or tumors were isolated to obtain tumor-infiltrating lymphocytes for flow-cytometry analysis as described below.\nAfter tumor cell injection, tumor volumes were measured every two days. Upon tumors measuring 90-100 mm^3 in volume (day 6-7), mice were randomly assigned to a control diet treatment or a COMPOUND 705-supplemented diet (50 mg/kg/day; Rgenix).\nThe following day, 2×10^6 CD8+ T-cells from Pmel mice were adoptively transferred via retro-orbital injection into both control and COMPOUND 705 treated mice. […]"}, "[5]": {"system": "B16F10 melanoma", "test": "B16F10 tumors, compound 705 plus anti-PD-1 antibody", "assay_type": "in vivo, mice", "conditions": "B16F10, diet 50 mg/kg/day plus anti-PD-1 antibody 10 mg/kg I.P. every 3 days", "procedure": "as §1, with “Diets. […]” for “Diets.”\nas §2\nAfter tumor cell injection, animals were treated with anti-PD-1 antibody at a dose of 10 mg/kg (clone RMP1-14; BioXcell), by intraperitoneal (I.P.) injection every 3 days for 3 total doses starting on the day of tumor injection. […] Tumor dimensions were measured using digital calipers, and tumor volume was calculated as (small diameter)^2×(large diameter)/2. […]"}, "[6]": {"system": "CD8+ T-cells co-cultured with MDSCs", "test": "T-cell suppression assay", "assay_type": "cell-based", "conditions": "24 hours co-culture with MDSCs from treated tumor-bearing mice", "procedure": "CD8+ cells were purified from single cell suspensions from spleens of mice using the MACS CD8+ T-cell isolation kit (Miltenyi Biotech) according to manufacturer's protocol. Cells were then labeled with cell tracker reagent (BV). The labeled CD8+ T cells were plated on 96-well plates coated with 1 mg/ml anti-CD3 and anti-CD28 beads (Dynabeads® Mouse T-Activator CD3/CD28 for T-Cell Expansion and Activation; Gibco). Recombinant IL-2 (Gibco) was then added to the wells according to manufacturer's protocol. MDSC were then isolated using the MACS Myeloid-Derived Suppressor Cell Isolation Kit (Miltenyi Biotech) according to manufacturer's protocol and subsequently added in the indicated MDSC:T-cell ratios. Cells were incubated at 37° C. for 24-36 hours. T-cell activation was measured by flow cytometry by assessing the percent of T-cells positive for IFNγ staining with diluted BV dye."}, "[7]": {"system": "MDSCs", "test": "MDSC abundance assay", "assay_type": "cell-based, mice", "conditions": "1 μM, 3 hours", "procedure": "MDSCs were isolated from the spleens of tumor-bearing wild-type or ApoE−/− mice, as indicated, using the MACS Myeloid-Derived Suppressor Cell Isolation Kit (Miltenyi Biotech) according to manufacturer's protocol. MDSCs were then incubated in RPMI (Sigma) supplemented with 10% FBS and either COMPOUND 705 (dissolved in 2% DMSO at the indicated concentration) or control (2% DMSO) and subsequently incubated at 37° C. for the indicated time. Abundance was assessed by quantifying the percent of live cells using propidium Iodide staining. […]"}, "[8]": {"target": "T2, LXRα (Homo sapiens, UniProt Q13133)", "T2 sequence (Q13133 1-447)": "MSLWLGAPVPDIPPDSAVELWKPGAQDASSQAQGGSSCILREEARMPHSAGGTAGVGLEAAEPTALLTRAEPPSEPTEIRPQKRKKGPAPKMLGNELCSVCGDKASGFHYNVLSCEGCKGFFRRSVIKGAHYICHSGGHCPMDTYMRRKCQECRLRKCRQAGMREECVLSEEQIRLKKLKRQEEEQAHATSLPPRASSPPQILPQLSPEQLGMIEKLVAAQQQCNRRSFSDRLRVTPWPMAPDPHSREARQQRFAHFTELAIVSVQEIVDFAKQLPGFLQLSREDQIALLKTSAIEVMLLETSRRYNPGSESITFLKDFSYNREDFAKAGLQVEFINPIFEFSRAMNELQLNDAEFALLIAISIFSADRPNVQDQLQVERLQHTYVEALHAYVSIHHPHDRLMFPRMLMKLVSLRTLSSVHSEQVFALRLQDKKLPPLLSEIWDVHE", "conditions": "cited from earlier work"}, "[9]": {"conditions": "daily I.P. injection 2 mg, day 12-14"}},
  "data": [
    {"smiles": "O=C(O)Cc1cccc(OCCCN(Cc2cccc(C(F)(F)F)c2Cl)CC(c2ccccc2)c2ccccc2)c1", "note": "[Compound 682]", "values": [
      {"measurement": "number of tumor-infiltrating myeloid-derived suppressor cells (MDSCs)", "setting": "[1]; supplemented diet 100 mg/kg/day, tumors isolated day 12-14", "value": "reduces the number of tumor-infiltrating myeloid-derived suppressor cells"},
      {"measurement": "fold greater activity for LXRβ compared to LXRα", "setting": "[2]", "value": "approximately 6 fold"},
      {"measurement": "number of tumor-infiltrating activated CD8+ T-cells", "setting": "[3]", "value": "increases the number of tumor-infiltrating activated CD8+ T-cells"}
    ]},
    {"smiles": "CC(CCOc1cccc(CC(=O)O)c1)N(Cc1cccc(C(F)(F)F)c1Cl)CC(c1ccccc1)c1ccccc1", "note": "(stereo not shown) [Compound 705]", "values": [
      {"measurement": "anti-tumor activity of adoptively transferred melanoma-targeting CD8+ T-cells", "setting": "[4]", "value": "enhances the anti-tumor activity"},
      {"measurement": "anti-tumor T-cell response induced with anti-PD-1 antibody therapy", "setting": "[5]", "value": "enhances the anti-tumor T-cell response"},
      {"measurement": "number of granulocytic MDSCs (G-MDSC)", "setting": "[1]; [9]", "value": "reduces the number"},
      {"measurement": "number of monocytic MDSCs (M-MDSC)", "setting": "[1]; [9]", "value": "reduces the number"},
      {"measurement": "MDSC-mediated suppression of CD8+ T-cells", "setting": "[6]", "value": "reverses MDSC-mediated suppression of CD8+ T-cells"},
      {"measurement": "abundance of MDSCs in vitro", "setting": "[7]", "value": "reduces abundance of MDSCs in vitro"}
    ]},
    {"smiles": "CC(C)(O)c1cn(-c2ccc(-c3cccc(S(C)(=O)=O)c3)cc2)c(C(C)(C)c2ccccc2Cl)n1", "note": "[Compound 718]", "values": [
      {"measurement": "EC50", "setting": "[8]", "value": "101 to 1000", "unit": "nM"}
    ]}
  ]
}
